Data from ChEMBL document CHEMBL2074306, “Transport of bile acids in multidrug-resistance-protein 3-overexpressing cells co-transfected with the ileal Na+-dependent bile-acid transporter” (Biochem J, 2003).

Key:
Format in all cases: functional, cell membranes
Design in all cases: scale not given: the % may be the effect or the level left
[1] = target: Multidrug resistance associated protein (Homo sapiens) (UniProt Q96QA9); test: TP_TRANSPORTER: inhibition of Etoposide glucuronide uptake (Etoposide glucuronide: 0.094 uM, TCDC: 500 uM) by Taurochenodeoxycholate at a concentration of 500uM in membrane vesicle from MRP3-expressing Sf9 cells
[2] = target: Multidrug resistance associated protein (Homo sapiens) (UniProt Q96QA9); test: TP_TRANSPORTER: inhibition of Etoposide glucuronide uptake (Etoposide glucuronide: 0.094 uM, TCDC: 500.0 uM) in membrane vesicles from MRP3-expressing Sf9 cells; settings: Membrane vesicle
[3] = target: Multidrug resistance associated protein (Homo sapiens) (UniProt Q96QA9); test: TP_TRANSPORTER: inhibition of Etoposide glucuronide uptake (Etoposide glucuronide: 0.094 uM, TDCA: 500 uM) by Taurodeoxycholate at a concentration of 500uM in membrane vesicle from MRP3-expressing Sf9 cells
[4] = target: Multidrug resistance associated protein (Homo sapiens) (UniProt Q96QA9); test: TP_TRANSPORTER: inhibition of Etoposide glucuronide uptake (Etoposide glucuronide: 0.094 uM, TDCA: 500.0 uM) in membrane vesicles from MRP3-expressing Sf9 cells; settings: Membrane vesicle
[5] = target: Multidrug resistance associated protein (Homo sapiens) (UniProt Q96QA9); test: TP_TRANSPORTER: inhibition of Etoposide glucuronide uptake (Etoposide glucuronide: 0.094 uM, […] uM) by Glycolithocholate-3-sulfate at a concentration of 20uM in membrane vesicle from MRP3-expressing Sf9 cells
[6] = target: Multidrug resistance associated protein (Homo sapiens) (UniProt Q96QA9); test: TP_TRANSPORTER: inhibition of Etoposide glucuronide uptake (Etoposide glucuronide: 0.094 uM, GLC-S: 20.0 uM) in membrane vesicles from MRP3-expressing Sf9 cells; settings: Membrane vesicle
[7] = target: Multidrug resistance associated protein (Homo sapiens) (UniProt Q96QA9); test: TP_TRANSPORTER: inhibition of Etoposide glucuronide uptake (Etoposide glucuronide: 0.094 uM, GC: 500.0 uM) in membrane vesicles from MRP3-expressing Sf9 cells; settings: Membrane vesicle
[8] = target: Multidrug resistance associated protein (Homo sapiens) (UniProt Q96QA9); test: TP_TRANSPORTER: inhibition of Etoposide glucuronide uptake (Etoposide glucuronide: 0.094 uM, GC: 500 uM) by Glycocholate at a concentration of 500uM in membrane vesicle from MRP3-expressing Sf9 cells
[9] = target: Multidrug resistance associated protein (Homo sapiens) (UniProt Q96QA9); test: TP_TRANSPORTER: inhibition of Etoposide glucuronide uptake (Etoposide glucuronide: 0.094 uM, TLCAS: 50 uM) by Taurolithocholate-3-sulfate at a concentration of 50uM in membrane vesicle from MRP3-expressing Sf9 cells
[10] = target: Multidrug resistance associated protein (Homo sapiens) (UniProt Q96QA9); test: TP_TRANSPORTER: inhibition of Etoposide glucuronide uptake (Etoposide glucuronide: 0.094 uM, TLC-S: 50.0 uM) in membrane vesicles from MRP3-expressing Sf9 cells; settings: Membrane vesicle
[11] = target: Multidrug resistance associated protein (Homo sapiens) (UniProt Q96QA9); test: TP_TRANSPORTER: inhibition of Etoposide glucuronide uptake (Etoposide glucuronide: 0.094 uM, LC-S: 20.0 uM) in membrane vesicles from MRP3-expressing Sf9 cells; settings: Membrane vesicle
[12] = target: Multidrug resistance associated protein (Homo sapiens) (UniProt Q96QA9); test: TP_TRANSPORTER: inhibition of Etoposide glucuronide uptake (Etoposide glucuronide: 0.094 uM, Lithocholic acid-sulfate: 20 uM) by Lithocholate-3-sulfate at a concentration of 20uM in membrane vesicle from MRP3-expressing Sf9 cells
[13] = target: Multidrug resistance associated protein (Homo sapiens) (UniProt Q96QA9); test: TP_TRANSPORTER: inhibition of Etoposide glucuronide uptake (Etoposide glucuronide: 0.094 uM, MK571: 20 uM) by MK-571 at a concentration of 20uM in membrane vesicle from MRP3-expressing Sf9 cells
[14] = target: Multidrug resistance associated protein (Homo sapiens) (UniProt Q96QA9); test: TP_TRANSPORTER: inhibition of Etoposide glucuronide uptake (Etoposide glucuronide: 0.094 uM, MK-571: 20.0 uM) in membrane vesicles from MRP3-expressing Sf9 cells; settings: Membrane vesicle

Chain of Multidrug resistance associated protein (Homo sapiens) (Q96QA9 as listed by the source): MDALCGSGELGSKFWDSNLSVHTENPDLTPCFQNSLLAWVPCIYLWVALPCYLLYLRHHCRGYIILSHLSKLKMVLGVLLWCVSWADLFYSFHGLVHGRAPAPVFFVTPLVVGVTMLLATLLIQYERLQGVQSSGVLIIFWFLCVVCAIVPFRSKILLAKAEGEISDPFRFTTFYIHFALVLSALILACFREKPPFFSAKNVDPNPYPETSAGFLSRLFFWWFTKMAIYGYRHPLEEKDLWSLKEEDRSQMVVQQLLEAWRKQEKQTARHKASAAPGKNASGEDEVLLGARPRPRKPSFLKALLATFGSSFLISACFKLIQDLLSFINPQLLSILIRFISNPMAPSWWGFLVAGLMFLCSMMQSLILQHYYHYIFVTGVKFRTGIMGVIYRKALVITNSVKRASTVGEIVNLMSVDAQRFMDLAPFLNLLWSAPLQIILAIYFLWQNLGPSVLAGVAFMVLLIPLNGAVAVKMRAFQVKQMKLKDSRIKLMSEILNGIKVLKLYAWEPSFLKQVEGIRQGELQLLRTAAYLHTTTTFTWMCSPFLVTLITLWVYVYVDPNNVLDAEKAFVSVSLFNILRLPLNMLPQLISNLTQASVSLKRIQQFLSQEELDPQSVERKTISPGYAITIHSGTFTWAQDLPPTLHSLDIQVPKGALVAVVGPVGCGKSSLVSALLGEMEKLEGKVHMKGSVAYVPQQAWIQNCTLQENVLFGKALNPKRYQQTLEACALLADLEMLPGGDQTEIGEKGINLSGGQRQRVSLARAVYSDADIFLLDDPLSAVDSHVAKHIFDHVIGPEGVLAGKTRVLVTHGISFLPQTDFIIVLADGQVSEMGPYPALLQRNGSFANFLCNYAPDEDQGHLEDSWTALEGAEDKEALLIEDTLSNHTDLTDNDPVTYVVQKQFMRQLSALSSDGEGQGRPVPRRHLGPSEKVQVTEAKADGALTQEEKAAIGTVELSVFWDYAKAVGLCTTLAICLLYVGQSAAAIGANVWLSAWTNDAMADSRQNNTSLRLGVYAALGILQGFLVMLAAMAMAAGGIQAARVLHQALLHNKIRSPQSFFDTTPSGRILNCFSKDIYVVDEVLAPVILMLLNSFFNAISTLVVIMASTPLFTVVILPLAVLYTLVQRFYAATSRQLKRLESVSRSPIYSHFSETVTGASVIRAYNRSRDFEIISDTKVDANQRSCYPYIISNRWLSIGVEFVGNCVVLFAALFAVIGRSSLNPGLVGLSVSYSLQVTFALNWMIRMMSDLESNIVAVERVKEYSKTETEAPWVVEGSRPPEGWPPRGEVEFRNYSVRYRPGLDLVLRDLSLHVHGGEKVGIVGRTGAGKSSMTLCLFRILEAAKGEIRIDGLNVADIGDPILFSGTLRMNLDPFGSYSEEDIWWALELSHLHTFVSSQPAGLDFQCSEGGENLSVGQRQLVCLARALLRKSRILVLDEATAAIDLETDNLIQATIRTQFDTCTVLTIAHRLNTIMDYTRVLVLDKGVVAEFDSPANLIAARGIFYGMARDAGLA

For C[C@H](CCC(=O)NCCS(=O)(=O)O)[C@H]1CC[C@H]2[C@@H]3[C@H](O)C[C@@H]4C[C@H](O)CC[C@]4(C)[C@H]3CC[C@]12C, the Activity [1] was 6% and the Activity [2] was 6%.
In the case of C[C@H](CCC(=O)NCCS(=O)(=O)O)[C@H]1CC[C@H]2[C@@H]3CC[C@@H]4C[C@H](O)CC[C@]4(C)[C@H]3C[C@H](O)[C@]12C, the Activity [3] is reported as 9% and the Activity [4] is reported as 9%.
C[C@H](CCC(=O)NCC(=O)O)[C@H]1CC[C@H]2[C@@H]3CC[C@@H]4C[C@H](OS(=O)(=O)O)CC[C@]4(C)[C@H]3CC[C@]12C gave an Activity [5] of 29% and an Activity [6] of 29%.
In the case of C[C@H](CCC(=O)NCC(=O)O)[C@H]1CC[C@H]2[C@@H]3[C@H](O)C[C@@H]4C[C@H](O)CC[C@]4(C)[C@H]3C[C@H](O)[C@]12C, the Activity [7] is reported as 30% and the Activity [8] is reported as 30%.
C[C@H](CCC(=O)NCCS(=O)(=O)O)C1CC[C@H]2[C@@H]3CC[C@@H]4C[C@H](OS(=O)(=O)O)CC[C@]4(C)[C@H]3CC[C@]12C (some centres undefined) gave an Activity [9] of 8% and an Activity [10] of 8%.
Work on C[C@H](CCC(=O)O)[C@H]1CC[C@H]2[C@@H]3CC[C@@H]4C[C@H](OS(=O)(=O)O)CC[C@]4(C)[C@H]3CC[C@]12C yielded an Activity [11] of 24% and an Activity [12] of 24%.
In the case of CN(C)C(=O)CCSC(SCCC(=O)O)c1cccc(/C=C/c2ccc3ccc(Cl)cc3n2)c1 (centres undefined), the Activity [13] is reported as 40% and the Activity [14] is reported as 40%.
